Source: patent US7943162B2, “Drug delivery device” (Alcon, Inc., priority 1999, dated 2011)

Test: ocular pharmacokinetic study with rabbits implanted with ophthalmic drug delivery device 50 (LC-MS/MS tissue concentration)
Assay type: in vivo, New Zealand White rabbits
Details: device 50 implanted on outer sclera below Tenon's capsule
Text: Device 50 was constructed as shown in FIGS. 5 through 6B, with the following dimensions. […] Inner core 106 was a cylindrical tablet with a diameter of about 5.0 mm and a thickness of about 1.5 mm. […] The pharmaceutically active agent used in tablet 106 was 4,9(11)-Pregnadien-17α,21-diol-3,20-dione, an angiostatic steroid sold by Steraloids, Inc. of Wilton, N.H., and which is more fully disclosed in U.S. Pat. Nos. 5,770,592 and 5,679,666. The formulation of tablet 106 consisted of 99.75 weight percent 4,9(11)-Pregnadien-17α,21-diol-3,20-dione, and 0.25 weight percent magnesium stearate.
At one week after implantation, 4 rabbits were euthanized and their right eyes were enucleated. The device 50 was removed from the eyes, and the location of tablet 106 was marked on their sclerae. Following the removal of the anterior segment and the vitreous of each eye and inversion of the thus formed eye-cup, a 10 mm diameter circular zone of retinal tissue, concentric with and below the location of tablet 106 on the sclera, was harvested (the “target site”). […] All these tissues were separately homogenized, and the concentration of angiostatic steroid in each of these tissues was determined via an ocular pharmacokinetic study using high performance liquid chromatography and mass spectrometry analysis (LC-MS/MS). […]

levels of angiostatic steroid in the retina and the choroid at the second and third sites (second site remote from the target site, on the other side of the optic nerve, third site between the second site and the target site): at or near zero
Structure (SMILES): C[C@]12CCC(=O)C=C1CC[C@@H]1C2=CC[C@@]2(C)[C@H]1CC[C@]2(O)C(=O)CO [4,9(11)-Pregnadien-17α,21-diol-3,20-dione]
mean concentration of angiostatic steroid in the retina and the choroid at the target site as a function of time (right eye, tablet 99.75 wt% drug, target site below tablet, 1, 3, 6, 9, 12 weeks after implantation, up to twelve weeks): pharmaceutically effective and generally constant amount
